Source: US20100035907A1, “NEW 2,4-DIANILINOPYRIMIDINES, PREPARATION THEREOF AS DRUGS, PHARMACEUTICAL COMPOSITIONS AND USE THEREOF ESSENTIALLY AS IKK INHIBITORS” (Sanofi-aventis, priority 2007, published 2010)

melting point	SMILES
100 to 110 °C	Cc1cc(Nc2ccnc(Nc3ccc(C(=O)N(C)C4CCCN(CCCC(F)(F)F)C4)cc3)n2)ccc1F (centres unmarked) [Example 2, 4-[4-(4-Fluoro-3-methylphenylamino)pyrimidin-2-ylamino]-N-methyl-N-[1-(4,4,4-trifluorobutyl)piperidin-3-yl]benzamide]
125 to 130 °C	Cc1cc(Nc2ccnc(Nc3ccc(C(=O)N(C)C4CCCN(Cc5csnn5)C4)cc3)n2)ccc1F (centres unmarked) [Example 3, 4-[4-(4-Fluoro-3-methylphenylamino)pyrimidin-2-ylamino]-N-methyl-N-[1-(1,2,3-thiadiazol-4-ylmethyl)piperidin-3-yl]benzamide]
238 to 244 °C	CN1CCC(N(C)C(=O)c2ccc(Nc3nccc(Nc4ccc(C(F)(F)F)cc4)n3)cc2)CC1 [Example 4, N-Methyl-N-(1-methylpiperidin-4-yl)-4-[4-(4-(trifluoromethyl)phenylamino)pyrimidin-2-ylamino]benzamide]
254 to 256 °C	CN(C(=O)c1ccc(Nc2nccc(Nc3ccc(C(F)(F)F)cc3)n2)cc1)C1CCOCC1 [Example 5, N-Methyl-N-(tetrahydropyran-4-yl)-4-[4-(4-(trifluoromethyl)phenylamino)pyrimidin-2-ylamino]benzamide]
230 to 235 °C	CN(C(=O)c1ccc(Nc2nccc(Nc3ccc(F)cc3)n2)cc1)C1CCN2CCCC2C1 (centres unmarked) [Example 7]
